Measurements: patent US9303016B2, “Derivatives of aza adamantane and uses thereof” (CONNEXIOS LIFE SCIENCES PVT. LTD., priority 2011, dated 2016)

molecular target: T1, human full length HSD11β1 (Homo sapiens, UniProt P28845); experiment: In Vitro HSD11β1 Inhibition Assay; type: cell-based; conditions: CHO cells transiently expressing human HSD11β1; 200 nM cortisone+500 uM NADPH overnight; cortisone to cortisol by LC/MS-MS; read-out: 11βHSD1 (IC50)
T1 construct: transient expression of human full length HSD11β1 expression vector; host or cells: CHO cells, transient transfection
T1 sequence (P28845 whole entry): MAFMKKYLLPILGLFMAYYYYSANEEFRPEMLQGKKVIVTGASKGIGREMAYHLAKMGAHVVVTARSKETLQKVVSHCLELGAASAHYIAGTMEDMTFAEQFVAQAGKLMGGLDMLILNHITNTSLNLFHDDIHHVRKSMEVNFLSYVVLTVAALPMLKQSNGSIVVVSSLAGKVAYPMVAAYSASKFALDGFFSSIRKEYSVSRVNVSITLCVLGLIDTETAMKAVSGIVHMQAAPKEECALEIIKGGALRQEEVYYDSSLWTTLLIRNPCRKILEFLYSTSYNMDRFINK
Summary of the method: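 Whole-cell assay in CHO cells transiently transfected with full-length human HSD11β1, re-seeded 24 h after transfection. Cells incubated overnight with 200 nM cortisone plus 500 uM NADPH, with or without inhibitor. Cortisone-to-cortisol conversion measured by LC/MS-MS; IC50 (nM) from an 8-point log concentration-inhibition curve.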

For `CC(CC(=O)N1C2CC3CC1CC(C(=O)O)(C3)C2)c1c[nH]c2ncccc12` (stereo not drawn) [Compound 91, 2-[3-(1H-pyrrolo[2,3-b]pyridin-3-yl)butanoyl]-2-azatricyclo[3.3.1.1^3,7]decane-5-carboxylic acid], which IC50 is on record?
The IC50 was greater than 250 nM.

Which IC50 does the source give for `CC(C)C(CC(=O)N1C2CC3CC1CC(C#N)(C3)C2)c1c[nH]c2ncccc12` (stereo not drawn) [Compound 92, 2-[4-methyl-3-(1H-pyrrolo[2,3-b]pyridin-3-yl)pentanoyl]-2-azatricyclo[3.3.1.1^3,7]decane-5-carbonitrile] here?
The IC50 was greater than 250 nM.

With `Cc1cccc2[nH]cc(C(CC(=O)N3C4CC5CC3CC(O)(C5)C4)c3ccc(F)cc3)c12` (stereo not drawn) [Compound 93, 3-(4-fluorophenyl)-1-(5-hydroxy-2-azatricyclo[3.3.1.1^3,7]dec-2-yl)-3-(4-methyl-1H-indol-3-yl)propan-1-one] as the compound, how does the IC50 read?
Its IC50 is greater than 250 nM.

Which IC50 does the source give for `O=C(CC(c1ccccc1)c1c[nH]c2cc(F)ccc12)N1C2CC3CC1CC(O)(C3)C2` (stereo not drawn) [Compound 94, 3-(6-fluoro-1H-indol-3-yl)-1-(5-hydroxy-2-azatricyclo[3.3.1.1^3,7]dec-2-yl)-3-phenylpropan-1-one] here?
The IC50 was less than 100 nM.

For `O=C(CC(c1c[nH]c2cccc(F)c12)C1CC1)N1C2CC3CC1CC(O)(C3)C2` (stereo not drawn) [Compound 95, 3-cyclopropyl-3-(4-fluoro-1H-indol-3-yl)-1-(5-hydroxy-2-azatricyclo[3.3.1.1^3,7]dec-2-yl)propan-1-one], which IC50 is on record?
The IC50 was 100 to 150 nM.

How did the IC50 turn out when `O=C(CC(c1ccc(F)cc1F)c1c[nH]c2ccccc12)N1C2CC3CC1CC(O)(C3)C2` (stereo not drawn) [Compound 96, 3-(2,4-difluorophenyl)-1-(5-hydroxy-2-azatricyclo[3.3.1.1^3,7]dec-2-yl)-3-(1H-indol-3-yl)propan-1-one] was run?
The IC50 was 100 to 150 nM.

For `O=C(CC(c1ccc(F)cc1)c1c[nH]c2cccc(F)c12)N1C2CC3CC1CC(O)(C3)C2` (stereo not drawn) [Compound 99, 3-(4-fluoro-1H-indol-3-yl)-3-(4-fluorophenyl)-1-(5-hydroxy-2-azatricyclo[3.3.1.1^3,7]dec-2-yl)propan-1-one], which IC50 is on record?
The IC50 was less than 100 nM.

How did the IC50 turn out when `Cc1cccc2[nH]cc(C(C)CC(=O)N3C4CC5CC3CC(F)(C5)C4)c12` (stereo not drawn) [Compound 104, 1-(5-fluoro-2-azatricyclo[3.3.1.1^3,7]dec-2-yl)-3-(4-methyl-1H-indol-3-yl)butan-1-one] was run?
The IC50 was less than 100 nM.

Which IC50 does the source give for `CC(CC(=O)N1C2CC3CC(C2)CC1C3)c1nc2ccccc2s1` (stereo not drawn) [Compound 105, 1-(2-azatricyclo[3.3.1.1^3,7]dec-2-yl)-3-(1,3-benzothiazol-2-yl)butan-1-one] here?
The IC50 was less than 100 nM.

`CC(CC(=O)N1C2CC3CC1CC(F)(C3)C2)c1nc2ccccc2s1` (stereo not drawn) [Compound 106, 3-(1,3-benzothiazol-2-yl)-1-(5-fluoro-2-azatricyclo[3.3.1.1^3,7]dec-2-yl)butan-1-one] was tested. Which IC50 did it give?
The IC50 was 100 to 150 nM.

How did the IC50 turn out when `O=C(CC(c1ccccc1)c1nc2ccccc2s1)N1C2CC3CC1CC(O)(C3)C2` (stereo not drawn) [Compound 107, 3-(1,3-benzothiazol-2-yl)-1-(5-hydroxy-2-azatricyclo[3.3.1.1^3,7]dec-2-yl)-3-phenylpropan-1-one] was run?
Its IC50 is greater than 250 nM.

With `O=C(CC(c1ccccc1)c1nc2ccccc2s1)N1C2CC3CC1CC(F)(C3)C2` (stereo not drawn) [Compound 108, 3-(1,3-benzothiazol-2-yl)-1-(5-fluoro-2-azatricyclo[3.3.1.1^3,7]dec-2-yl)-3-phenylpropan-1-one] as the compound, how does the IC50 read?
The IC50 was greater than 250 nM.

Which IC50 does the source give for `COc1ccc2[nH]cc(C(C)CC(=O)N3C4CC5CC3CC(O)(C5)C4)c2c1` (stereo not drawn) [Compound 109, 1-(5-hydroxy-2-azatricyclo[3.3.1.1^3,7]dec-2-yl)-3-(5-methoxy-1H-indol-3-yl)butan-1-one] here?
The IC50 was greater than 250 nM.

Which IC50 does the source give for `Cc1ccc2[nH]cc(C(C)CC(=O)N3C4CC5CC3CC(O)(C5)C4)c2c1` (stereo not drawn) [Compound 110, 1-(5-hydroxy-2-azatricyclo[3.3.1.1^3,7]dec-2-yl)-3-(5-methyl-1H-indol-3-yl)butan-1-one] here?
Its IC50 is greater than 250 nM.

Which IC50 does the source give for `O=C(CC(c1ccccc1)c1c[nH]c2cccc(F)c12)N1C2CC3CC1CC(C(=O)O)(C3)C2` (stereo not drawn) [Compound 111, 2-[3-(4-fluoro-1H-indol-3-yl)-3-phenylpropanoyl]-2-azatricyclo[3.3.1.1^3,7]decane-5-carboxylic acid] here?
The IC50 was greater than 250 nM.

`O=C(CC(c1ccccc1)c1c[nH]c2cc(F)ccc12)N1C2CC3CC1CC(C(=O)O)(C3)C2` (stereo not drawn) [Compound 112, 2-[3-(6-fluoro-1H-indol-3-yl)-3-phenylpropanoyl]-2-azatricyclo[3.3.1.1^3,7]decane-5-carboxylic acid] was tested. Which IC50 did it give?
The IC50 was 200 to 250 nM.

`Cc1[nH]c2ccc(F)cc2c1C(C)CC(=O)N1C2CC3CC1CC(O)(C3)C2` (stereo not drawn) [Compound 113, 3-(5-fluoro-2-methyl-1H-indol-3-yl)-1-(5-hydroxy-2-azatricyclo[3.3.1.1^3,7]dec-2-yl)butan-1-one] was tested. Which IC50 did it give?
Its IC50 is greater than 250 nM.

`Cc1cccc2[nH]cc(CCC(=O)N3C4CC5CC3CC(O)(C5)C4)c12` [Compound 116, 1-(5-hydroxy-2-azatricyclo[3.3.1.1^3,7]dec-2-yl)-3-(4-methyl-1H-indol-3-yl)propan-1-one] was tested. Which IC50 did it give?
The IC50 was 200 to 250 nM.

With `COc1cc2c(C(C)CC(=O)N3C4CC5CC3CC(O)(C5)C4)c[nH]c2cc1Cl` (stereo not drawn) [Compound 117, 3-(6-chloro-5-methoxy-1H-indol-3-yl)-1-(5-hydroxy-2-azatricyclo[3.3.1.1^3,7]dec-2-yl)butan-1-one] as the compound, how does the IC50 read?
Its IC50 is greater than 250 nM.

`CC(CC(=O)N1C2CC3CC1CC(C#N)(C3)C2)c1nc2ccccc2s1` (stereo not drawn) [Compound 118, 2-[3-(1,3-benzothiazol-2-yl)butanoyl]-2-azatricyclo[3.3.1.1^3,7]decane-5-carbonitrile] was tested. Which IC50 did it give?
The IC50 was greater than 250 nM.

Which IC50 does the source give for `CC(CC(=O)N1C2CC3CC(C2)CC1C3)c1nc2c(Cl)cccc2s1` (stereo not drawn) [Compound 119, 1-(2-azatricyclo[3.3.1.1^3,7]dec-2-yl)-3-(4-chloro-1,3-benzothiazol-2-yl)butan-1-one] here?
Its IC50 is less than 100 nM.

Which IC50 does the source give for `CC(CC(=O)N1C2CC3CC1CC(O)(C3)C2)c1nc2c(Cl)cccc2s1` (stereo not drawn) [Compound 120, 3-(4-chloro-1,3-benzothiazol-2-yl)-1-(5-hydroxy-2-azatricyclo[3.3.1.1^3,7]dec-2-yl)butan-1-one] here?
Its IC50 is greater than 250 nM.

How did the IC50 turn out when `O=C(CC(c1ccccc1)n1nnc2ccccc21)N1C2CC3CC1CC(O)(C3)C2` (stereo not drawn) [Compound 121, 3-(1H-benzotriazol-1-yl)-1-(5-hydroxy-2-azatricyclo[3.3.1.1^3,7]dec-2-yl)-3-phenylpropan-1-one] was run?
Its IC50 is greater than 250 nM.

With `O=C(O)C1C2CC3CC(C2)N(C(=O)CC(c2cccs2)c2c[nH]c4cccc(F)c24)C1C3` (stereo not drawn) [Compound 122, 2-[3-(4-fluoro-1H-indol-3-yl)-3-(thiophen-2-yl)propanoyl]-2-azatricyclo[3.3.1.1^3,7]decane-4-carboxylic acid] as the compound, how does the IC50 read?
Its IC50 is greater than 250 nM.

With `CC(CC(=O)N1C2CC3CC1CC(C#N)(C3)C2)c1nc2c(Cl)cccc2s1` (stereo not drawn) [Compound 123, 2-[3-(4-chloro-1,3-benzothiazol-2-yl)butanoyl]-2-azatricyclo[3.3.1.1^3,7]decane-5-carbonitrile] as the compound, how does the IC50 read?
Its IC50 is greater than 250 nM.

`O=C(CCc1c[nH]c2cccc(C3CC3)c12)N1C2CC3CC1CC(O)(C3)C2` [Compound 126, 3-(4-cyclopropyl-1H-indol-3-yl)-1-(5-hydroxy-2-azatricyclo[3.3.1.1^3,7]dec-2-yl)propan-1-one] was tested. Which IC50 did it give?
The IC50 was less than 100 nM.

How did the IC50 turn out when `O=C(CC(c1cccs1)c1c[nH]c2cccc(F)c12)N1C2CC3CC1CC(O)(C3)C2` (stereo not drawn) [Compound 127, 3-(4-fluoro-1H-indol-3-yl)-1-(5-hydroxy-2-azatricyclo[3.3.1.1^3,7]dec-2-yl)-3-(thiophen-2-yl)propan-1-one] was run?
The IC50 was less than 100 nM.

Which IC50 does the source give for `CCCc1cccc2[nH]cc(CCC(=O)N3C4CC5CC3CC(O)(C5)C4)c12` [Compound 128, 1-(5-hydroxy-2-azatricyclo[3.3.1.1^3,7]dec-2-yl)-3-(4-propyl-1H-indol-3-yl)propan-1-one] here?
The IC50 was greater than 250 nM.

For `Cc1cccc2c1nnn2C(CC(=O)N1C2CC3CC1CC(O)(C3)C2)C(C)C` (stereo not drawn) [Compound 131, 1-(5-hydroxy-2-azatricyclo[3.3.1.1^3,7]dec-2-yl)-4-methyl-3-(4-methyl-1H-benzotriazol-1-yl)pentan-1-one], which IC50 is on record?
Its IC50 is greater than 250 nM.

With `CC(CC(=O)N1C2CC3CC1CC(O)(C3)C2)c1c[nH]c2nccc(C3CC3)c12` (stereo not drawn) [Compound 132, 3-(4-cyclopropyl-1H-pyrrolo[2,3-b]pyridin-3-yl)-1-(5-hydroxy-2-azatricyclo[3.3.1.1^3,7]dec-2-yl)butan-1-one] as the compound, how does the IC50 read?
The IC50 was less than 100 nM.

`CC(CC(=O)N1C2CC3CC1CC(O)(C3)C2)c1c[nH]c2cc(Cl)c(F)cc12` (stereo not drawn) [Compound 133, 3-(6-chloro-5-fluoro-1H-indol-3-yl)-1-(5-hydroxy-2-azatricyclo[3.3.1.1^3,7]dec-2-yl)butan-1-one] was tested. Which IC50 did it give?
The IC50 was 100 to 150 nM.

For `O=C(CC(c1ccccc1)c1c[nH]c2cc(Cl)ccc12)N1C2CC3CC1CC(C(=O)O)(C3)C2` (stereo not drawn) [Compound 134, 2-[3-(6-chloro-1H-indol-3-yl)-3-phenylpropanoyl]-2-azatricyclo[3.3.1.1^3,7]decane-5-carboxylic acid], which IC50 is on record?
Its IC50 is 150 to 200 nM.

For `CC(CC(=O)N1C2CC3CC1CC(O)(C3)C2)c1c[nH]c2ncc(Cl)cc12` (stereo not drawn) [Compound 135, 3-(5-chloro-1H-pyrrolo[2,3-b]pyridin-3-yl)-1-(5-hydroxy-2-azatricyclo[3.3.1.1^3,7]dec-2-yl)butan-1-one], which IC50 is on record?
Its IC50 is greater than 250 nM.

For `CC(CC(=O)N1C2CC3CC1CC(C#N)(C3)C2)c1c[nH]c2nccc(C3CC3)c12` (stereo not drawn) [Compound 136, 2-[3-(4-cyclopropyl-1H-pyrrolo[2,3-b]pyridin-3-yl)butanoyl]-2-azatricyclo[3.3.1.1^3,7]decane-5-carbonitrile], which IC50 is on record?
The IC50 was less than 100 nM.

How did the IC50 turn out when `CC(CC(=O)N1C2CC3CC1CC(C#N)(C3)C2)c1c[nH]c2ncc(Cl)cc12` (stereo not drawn) [Compound 137, 2-[3-(6-chloro-1H-pyrrolo[2,3-b]pyridin-3-yl)butanoyl]-2-azatricyclo[3.3.1.1^3,7′]decane-5-carbonitrile] was run?
The IC50 was greater than 250 nM.

For `CC(CC(=O)N1C2CC3CC1CC(O)(C3)C2)c1c[nH]c2cc(Cl)c(C3CC3)cc12` (stereo not drawn) [Compound 138, 3-(6-chloro-5-cyclopropyl-1H-indol-3-yl)-1-(5-hydroxy-2-azatricyclo[3.3.1.1^3,7]dec-2-yl)butan-1-one], which IC50 is on record?
The IC50 was 100 to 150 nM.
